One molecule from paper PMC8356643 (2019) can be followed below.

The subject of assay [1] is cMyc (DNA, G4) TGAGGGTGGGTAGGGTGGGTAA
In words: fluorescence titration. As to conditions: 100 mM K+; 6 mM Na2HPO4, 2 mM NaH2PO4 7.1, 1 mM Na2EDTA, 100 mM KCl.

The test system of assay [2] is THM (DNA, G4) GGGTTGGGTTGGGTTGGG
In words: CD melting. The note with it: 5 mM K+; 2 eq NMM.

Assay [3] has the same test system. Briefly: fluorescence titration. The note with it: 5 mM K+, 95 mM Li+; 10 mM lithium cacodylate 7.2, 95 mM LiCl, 5 mM KCl.
Assay [4] deals with cMyc (DNA, G4) TGAGGGTGGGTAGGGTGGGTAA
Briefly: UV-vis titration. As to conditions: 100 mM K+; 6 mM Na2HPO4, 2 mM NaH2PO4 7.1, 1 mM Na2EDTA, 100 mM KCl.

Assay [5] concerns THM (DNA, G4) GGGTTGGGTTGGGTTGGG
In words: ITC. The note with it: 5 mM K+, 95 mM Li+; 10 mM lithium cacodylate 7.2, 95 mM LiCl, 5 mM KCl.

For assay [6] the test system is unchanged. In words: X-ray crystallography. The note with it: K+; 2.4 Å; end-stacking to the 3' G-tetrad.
For assay [7] the test system is unchanged. Briefly: UV-vis titration. The note with it: 5 mM K+, 95 mM Li+; 10 mM lithium cacodylate 7.2, 95 mM LiCl, 5 mM KCl.
Assay [8] concerns G4TERT (DNA, G4) AGGGGAGGGGCTGGGAGGGC
In words: UV-vis titration. As to conditions: 5 mM K+, 95 mM Li+; 10 mM lithium cacodylate 7.2, 95 mM LiCl, 5 mM KCl; parallel dimer.

Assay [9] relates to VEGF (DNA, G4) GGGAGGGTTGGGGTGGG
In words: UV-vis titration. As to conditions: 5 mM K+, 95 mM Li+; 10 mM lithium cacodylate 7.2, 95 mM LiCl, 5 mM KCl; parallel dimer.

Each structure is given as a SMILES string.

For `CCc1c(C)c2cc3nc(cc4nc(cc5c(CC)c(C)c(cc1[nH]2)n5C)C(C)=C4CCC(=O)O)C(CCC(=O)O)=C3C`, the Ka in assay [1] was 7.4 ± 2 × 10^6 M^-1; in assay [3], 50 ± 20 × 10^6 M^-1; in [4], 19 ± 6 × 10^6 M^-1; in [5], 70 ± 20 × 10^6 M^-1; in assay [7], 30 ± 20 × 10^6 M^-1; in assay [8] it was 1.7 ± 0.7 × 10^6 M^-1. Also, the Ka in [9] is given as 10. ± 2 × 10^6 M^-1. For the same molecule, the ΔT in assay [2] stood at 23 ± 2 °C. Moreover, the binding entry in [6] is listed as “yes”.
